Structures are written as SMILES.

A short description of data set [1]: side effects / tolerability during treatment. The data set is classed as in vivo, Frauen. Conditions: 50 mg/Tag oral.
A short description of data set [2]: oral glucose tolerance test (oGTT) before and after 4 weeks of treatment. The data set is classed as in vivo, Frauen. To be noted: 50 mg/Tag oral. How it is done: (§1) Die folgenden Untersuchungen wurden an vier gegenüber Insulin resistenten Frauen durchgeführt, welche ein Hyperandrogenämie litten. Das Alter der Frauen lag zwischen 16 und 33 Jahren und ihr Körpermasseindex (Body mass Index - BMI) reichte von 28 bis 41. Die Hyperandrogenämie wurde durch Bestimmung von LH, FSH, Prolactin, Testosteron, freien Testosteronen, SHBG und DHEAS im Serum diagnostiziert. Vor der Behandlung lagen die Testosteronwerte zwischen 0,4 und 1,65 ng/ml und die Insulinkonzentrationen betrugen von 25 bis 62 mcU/ml.
Die Insulinresistenz wurde durch orale Verabreichung von 400 ml einer Lösung nachgewiesen, welche eine Mono-Oligosaccharidmischung enthielt, die nach enzymatischer Hydrolyse im Gastrointestinaltrakt 100 g Glucose lieferte (Dextro-oGTT, Boehringer Mannheim). Während des oralen Glucose-Toleranz-Tests (oGTT) wurden vor der Kohlenhydratbelastung und danach 3 Stunden lang im Abstand von jeweils 15 Minuten Blutproben entnommen. In allen Proben wurde die Glucosekonzentration mit dem Hexokinase/Glucose-6-Phosphatdehydrogenase-Verfahren bestimmt. Ferner wurden die Insulin- und C-Peptidkonzentrationen mit handelsüblichen Radioimmun-Kits (Serono Diagnostic, Freiburg) bestimmt. Die Ergebnisse des oGTT wurden ausgewertet, indem das Verhältnis von Insulin zu Glucose berechnet wurde und die Flächen unter den Glucose-, Insulin- und C-Peptid-Kurven während des oGTT bestimmt wurden (vgl. Figur 1).
(§2) Als Opiat-Antagonist wurde Naltrexon (Ferring Arzneimittel GmbH, Kiel) in einer Dosis von 50 mg/Tag oral verabreicht. 4 Wochen nach Beginn der Naltrexon-Behandlung wurde nach dem gleichen Verfahren wie oben beschrieben ein zweiter oGTT durchgeführt und die Ergebnisse dieses Tests mit den vor Beginn der Behandlung erhaltenen Ergebnissen verglichen, wobei die Proben paarweise einem t-Test unterworfen wurden.

Data set [3] is described as follows: serum androgen and pituitary hormone levels during treatment. The class given is in vivo, Frauen. Conditions: 50 mg/Tag oral. How it is done:
as §1, §2
Im Gegensatz dazu blieben die Androgenkonzentrationen sowie die LH-, FSH- und Prolactin-Spiegel durch die Naltrexon-Behandlung unbeeinflußt.

The conditions of data set [4]: general statement, no data; cited from earlier work.

Take `O=C1CC[C@@]2(O)[C@H]3Cc4ccc(O)c5c4[C@@]2(CCN3CC2CC2)C1O5` (stereo partly drawn) [Naltrexon, 17-(Cyclopropylmethyl)-4,5-epoxy-3,14-dihydroxymorphinan-6-on]: in data set [1], the “Veränderungen des Blutbildes, der Leberenzyme und des Nierenstatus” value is on record as “nicht beobachtet”. Besides, in data set [1] (one of four patients), the Nebenwirkungen result was “Übelkeit mit Erbrechen und leichten Kopfschmerzen”. In addition, in data set [1] (three of four patients), the Verträglichkeit result is listed as “gut vertragen”. Moreover, in data set [2] (oGTT), the “Verhältnis von Insulin zu Glucose” value is reported as “sank” and the “molare Verhältnis von C-Peptid zu Insulin” value is “stieg”. Also, the “Konzentration von C-Peptid” value in data set [2] (oGTT, reduced, but not to the same extent as insulin) is “reduziert”. Further, the “Insulinspiegel nach Kohlenhydratbelastung” value in data set [2] (four insulin-resistant hyperandrogenaemic women, oGTT vs. before treatment) is on record as “beeindruckende Senkung”. Further, in data set [3], the Androgenkonzentrationen entry is listed as “unbeeinflußt”, the FSH-Spiegel result is reported as “unbeeinflußt”, the LH-Spiegel entry is recorded as “unbeeinflußt” and the Prolactin-Spiegel result is given as “unbeeinflußt”. Moreover, the “Verweildauer im Plasma” value in data set [4] is given as “lange”.

The values above are taken from patent EP0541192A1, “Use of opiate antagonists for the treatment of endogen hyperinsulinemia” (Ferring Arzneimittel GmbH, priority 1991, dated 1993).
